Results reported in US11691980B2, “Liphagal analog and multi-targeted kinase inhibitor containing liphagal or analog thereof” (TOHOKU UNIVERSITY, priority 2017, dated 2023).

Tests used:
Type in all cases: biochemical
[1] = target: T1, FES (Homo sapiens, UniProt P07332); experiment: mobility shift assay
T1 construct: purchased Carna Biosciences

[2] = target: T2, RAK4 (Homo sapiens, UniProt Q9NWZ3); experiment: mobility shift assay
T2 construct: purchased Carna Biosciences

[3] = target: T3, LCK (Homo sapiens, UniProt P06239); experiment: mobility shift assay
T3 construct: purchased Carna Biosciences
T3 sequence (P06239 whole entry): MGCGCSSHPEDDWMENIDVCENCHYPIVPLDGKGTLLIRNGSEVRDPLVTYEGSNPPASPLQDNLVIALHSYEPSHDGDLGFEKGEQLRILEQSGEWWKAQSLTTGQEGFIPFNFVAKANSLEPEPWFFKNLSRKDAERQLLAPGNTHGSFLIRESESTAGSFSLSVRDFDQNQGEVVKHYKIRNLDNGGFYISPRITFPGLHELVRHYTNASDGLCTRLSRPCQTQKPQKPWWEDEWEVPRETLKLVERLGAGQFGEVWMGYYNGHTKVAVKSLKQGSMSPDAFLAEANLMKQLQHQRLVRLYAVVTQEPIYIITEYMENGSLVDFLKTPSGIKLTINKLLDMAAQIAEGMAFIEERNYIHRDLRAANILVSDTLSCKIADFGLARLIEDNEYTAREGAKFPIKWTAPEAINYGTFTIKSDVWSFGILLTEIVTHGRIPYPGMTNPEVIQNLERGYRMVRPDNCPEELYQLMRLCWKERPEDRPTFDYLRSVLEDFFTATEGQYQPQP

[4] = target: T4, ALK(G1202R) (Homo sapiens, UniProt Q9UM73, G1202R); experiment: mobility shift assay
T4 construct: purchased Carna Biosciences
T4 sequence (Q9UM73 19-1620 G1202R): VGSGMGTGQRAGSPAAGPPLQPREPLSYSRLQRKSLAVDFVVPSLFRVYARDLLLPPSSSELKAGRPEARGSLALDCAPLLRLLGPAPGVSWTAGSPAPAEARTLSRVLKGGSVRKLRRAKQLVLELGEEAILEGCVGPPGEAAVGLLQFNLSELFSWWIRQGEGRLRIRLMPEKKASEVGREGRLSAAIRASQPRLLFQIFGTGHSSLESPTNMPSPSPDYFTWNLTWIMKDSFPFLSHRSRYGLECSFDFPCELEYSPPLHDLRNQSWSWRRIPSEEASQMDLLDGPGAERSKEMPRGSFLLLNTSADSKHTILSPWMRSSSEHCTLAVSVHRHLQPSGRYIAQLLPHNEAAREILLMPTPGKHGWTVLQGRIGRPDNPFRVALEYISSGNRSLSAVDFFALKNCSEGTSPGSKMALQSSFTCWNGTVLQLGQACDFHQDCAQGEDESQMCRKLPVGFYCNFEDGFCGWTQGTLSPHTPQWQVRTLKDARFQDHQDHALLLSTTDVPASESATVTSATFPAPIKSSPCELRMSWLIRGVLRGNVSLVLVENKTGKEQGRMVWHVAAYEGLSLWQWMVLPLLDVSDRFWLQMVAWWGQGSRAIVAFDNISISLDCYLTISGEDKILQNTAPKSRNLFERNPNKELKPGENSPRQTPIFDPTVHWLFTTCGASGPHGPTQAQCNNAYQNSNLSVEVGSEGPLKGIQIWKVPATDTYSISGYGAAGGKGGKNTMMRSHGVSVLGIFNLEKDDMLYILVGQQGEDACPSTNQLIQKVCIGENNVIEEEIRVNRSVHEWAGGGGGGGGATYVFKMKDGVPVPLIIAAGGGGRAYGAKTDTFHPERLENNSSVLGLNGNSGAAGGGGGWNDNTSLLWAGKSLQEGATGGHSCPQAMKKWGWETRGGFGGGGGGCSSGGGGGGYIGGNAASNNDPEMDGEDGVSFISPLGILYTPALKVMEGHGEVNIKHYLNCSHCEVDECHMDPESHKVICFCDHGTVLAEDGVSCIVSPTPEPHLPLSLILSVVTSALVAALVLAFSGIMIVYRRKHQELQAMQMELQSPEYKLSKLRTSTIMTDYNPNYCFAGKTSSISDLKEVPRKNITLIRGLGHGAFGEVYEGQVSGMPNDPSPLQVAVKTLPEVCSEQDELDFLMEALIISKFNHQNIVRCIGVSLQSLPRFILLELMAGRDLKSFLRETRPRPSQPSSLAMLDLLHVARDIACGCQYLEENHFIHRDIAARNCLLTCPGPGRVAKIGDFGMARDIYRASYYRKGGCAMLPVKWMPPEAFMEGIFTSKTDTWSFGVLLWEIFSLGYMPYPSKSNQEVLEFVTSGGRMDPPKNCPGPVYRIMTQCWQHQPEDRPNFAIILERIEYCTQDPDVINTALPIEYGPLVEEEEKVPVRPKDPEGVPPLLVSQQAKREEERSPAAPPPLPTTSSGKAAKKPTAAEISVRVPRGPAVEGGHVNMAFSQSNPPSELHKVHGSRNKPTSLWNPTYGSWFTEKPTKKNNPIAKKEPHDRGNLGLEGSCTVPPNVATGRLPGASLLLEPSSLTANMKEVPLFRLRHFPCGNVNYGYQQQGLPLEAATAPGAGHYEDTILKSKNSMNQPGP

[5] = target: T5, MAP2K6_Cascade (Homo sapiens, UniProt P52564); experiment: mobility shift assay
T5 construct: purchased Carna Biosciences

[6] = target: T6, FER (Homo sapiens, UniProt P16591); experiment: mobility shift assay
T6 construct: purchased Carna Biosciences

[7] = tested on: ALK(L1152lnsT); experiment: mobility shift assay; conditions: 10 μM
[8] = target: T7, FAK (Homo sapiens, UniProt Q05397); experiment: mobility shift assay
T7 construct: purchased Carna Biosciences

[9] = target: T8, PKCδ (Homo sapiens, UniProt Q05655); experiment: mobility shift assay
T8 construct: purchased Carna Biosciences

[10] = target: T9, FGR (Homo sapiens, UniProt P09769); experiment: mobility shift assay
T9 construct: purchased Carna Biosciences
T9 sequence (P09769 whole entry): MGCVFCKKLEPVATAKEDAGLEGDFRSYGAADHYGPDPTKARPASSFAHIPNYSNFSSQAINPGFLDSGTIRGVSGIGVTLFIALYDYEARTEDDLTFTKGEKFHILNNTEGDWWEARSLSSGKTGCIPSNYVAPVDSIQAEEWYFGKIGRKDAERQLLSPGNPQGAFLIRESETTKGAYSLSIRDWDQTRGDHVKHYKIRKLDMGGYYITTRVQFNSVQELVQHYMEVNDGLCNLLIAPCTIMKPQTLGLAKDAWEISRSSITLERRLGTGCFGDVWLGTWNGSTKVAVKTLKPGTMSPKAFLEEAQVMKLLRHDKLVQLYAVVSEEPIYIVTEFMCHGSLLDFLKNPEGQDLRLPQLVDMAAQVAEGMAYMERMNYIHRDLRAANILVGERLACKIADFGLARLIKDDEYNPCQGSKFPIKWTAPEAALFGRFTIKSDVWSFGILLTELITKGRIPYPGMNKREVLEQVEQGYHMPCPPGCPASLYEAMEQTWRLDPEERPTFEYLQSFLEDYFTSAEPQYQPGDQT

[11] = target: T10, PKACβ (Homo sapiens, UniProt P22694); experiment: mobility shift assay
T10 construct: purchased Carna Biosciences

[12] = target: T11, AKT2 (Homo sapiens, UniProt P31751); experiment: mobility shift assay
T11 construct: purchased Carna Biosciences

[13] = target: T12, MAP2K7_Cascade (Homo sapiens, UniProt O14733); experiment: mobility shift assay
T12 construct: purchased Carna Biosciences

[14] = target: T13, EPHB3 (Homo sapiens, UniProt P54753); experiment: mobility shift assay
T13 construct: purchased Carna Biosciences

[15] = target: T14, CDC2/CycB1 (Homo sapiens, UniProt P06493); experiment: mobility shift assay
T14 construct: purchased Carna Biosciences

[16] = target: T15, PEK (Homo sapiens, UniProt Q9NZJ5); experiment: IMAP Assay
T15 construct: purchased Carna Biosciences

[17] = target: T16, IRAK1 (Homo sapiens, UniProt P51617); experiment: IMAP Assay
T16 construct: purchased Carna Biosciences

[18] = target: T17, PKD1 (Homo sapiens, UniProt Q15139); experiment: mobility shift assay
T17 construct: purchased Carna Biosciences

[19] = target: T18, MSK1 (Homo sapiens, UniProt O75582); experiment: mobility shift assay
T18 construct: purchased Carna Biosciences

[20] = target: T19, FLT4 (Homo sapiens, UniProt P35916); experiment: mobility shift assay
T19 construct: purchased Carna Biosciences

[21] = target: T20, FGFR2 (Homo sapiens, UniProt P21802); experiment: mobility shift assay
T20 construct: purchased Carna Biosciences

[22] = target: T21, CDK5/p25 (Homo sapiens, UniProt Q00535); experiment: mobility shift assay
T21 construct: purchased Carna Biosciences

[23] = target: T22, EPHB4 (Homo sapiens, UniProt P54760); experiment: mobility shift assay
T22 construct: purchased Carna Biosciences

[24] = target: T23, CaMK1α (Homo sapiens, UniProt Q14012); experiment: mobility shift assay
T23 construct: purchased Carna Biosciences

[25] = target: T24, PAK1 (Homo sapiens, UniProt Q13153); experiment: mobility shift assay
T24 construct: purchased Carna Biosciences

[26] = target: T25, MST2 (Homo sapiens, UniProt Q13188); experiment: mobility shift assay
T25 construct: purchased Carna Biosciences

[27] = target: T26, MAPKAPK2 (Homo sapiens, UniProt P49137); experiment: mobility shift assay
T26 construct: purchased Carna Biosciences

[28] = target: T27, KIT(D816E) (Homo sapiens, UniProt P10721, D816E); experiment: mobility shift assay
T27 construct: purchased Carna Biosciences

[29] = target: T28, TYRO3 (Homo sapiens, UniProt Q06418); experiment: mobility shift assay
T28 construct: purchased Carna Biosciences

[30] = target: T29, RET (Homo sapiens, UniProt P07949); experiment: mobility shift assay
T29 construct: purchased Carna Biosciences

[31] = target: T30, CDK2/CycA2 (Homo sapiens, UniProt P24941); experiment: mobility shift assay
T30 construct: purchased Carna Biosciences

[32] = target: T31, RET(S891A) (Homo sapiens, UniProt P07949, S891A); experiment: mobility shift assay
T31 construct: purchased Carna Biosciences

[33] = target: T32, EML4-ALK (Homo sapiens, UniProt Q9UM73); experiment: mobility shift assay
T32 construct: EML4 (fusion partner, Q9HC35); purchased Carna Biosciences; the other entry of the earlier key: EML4 (Q9HC35, Echinoderm microtubule-associated protein-like 4)
T32 sequence (Q9UM73 with tags, fused parts or gaps): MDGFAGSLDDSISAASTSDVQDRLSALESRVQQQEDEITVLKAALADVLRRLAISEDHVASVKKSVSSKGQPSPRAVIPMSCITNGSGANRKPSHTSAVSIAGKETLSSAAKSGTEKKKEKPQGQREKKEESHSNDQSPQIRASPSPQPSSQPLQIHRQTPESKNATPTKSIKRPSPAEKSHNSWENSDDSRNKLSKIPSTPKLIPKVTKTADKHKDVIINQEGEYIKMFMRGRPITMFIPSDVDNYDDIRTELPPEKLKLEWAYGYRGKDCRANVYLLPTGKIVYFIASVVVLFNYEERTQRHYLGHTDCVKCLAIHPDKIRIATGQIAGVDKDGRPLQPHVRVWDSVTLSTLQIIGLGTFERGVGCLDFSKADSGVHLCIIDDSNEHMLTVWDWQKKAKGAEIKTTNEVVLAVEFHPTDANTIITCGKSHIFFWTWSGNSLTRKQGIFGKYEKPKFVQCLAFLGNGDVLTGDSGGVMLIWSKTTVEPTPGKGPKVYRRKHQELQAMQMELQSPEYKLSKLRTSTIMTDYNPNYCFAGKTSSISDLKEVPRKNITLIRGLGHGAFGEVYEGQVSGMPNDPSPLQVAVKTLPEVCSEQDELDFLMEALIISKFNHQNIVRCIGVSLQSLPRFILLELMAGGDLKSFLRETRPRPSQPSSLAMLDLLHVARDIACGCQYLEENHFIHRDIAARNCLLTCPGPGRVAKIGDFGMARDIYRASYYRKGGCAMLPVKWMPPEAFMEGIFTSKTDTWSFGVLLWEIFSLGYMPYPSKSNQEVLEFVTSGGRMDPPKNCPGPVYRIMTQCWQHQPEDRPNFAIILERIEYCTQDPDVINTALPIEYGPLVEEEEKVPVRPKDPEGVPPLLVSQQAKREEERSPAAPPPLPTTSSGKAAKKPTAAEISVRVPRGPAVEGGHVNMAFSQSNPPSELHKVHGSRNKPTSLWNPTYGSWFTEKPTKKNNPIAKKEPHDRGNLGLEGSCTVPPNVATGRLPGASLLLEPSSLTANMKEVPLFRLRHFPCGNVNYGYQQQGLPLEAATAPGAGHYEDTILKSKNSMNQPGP

[34] = target: T33, ABL (Homo sapiens, UniProt P00519); experiment: mobility shift assay
T33 construct: purchased Carna Biosciences

[35] = target: T34, MLK3_Cascade (Homo sapiens, UniProt Q16584); experiment: mobility shift assay
T34 construct: purchased Carna Biosciences

[36] = target: T35, AKT1 (Homo sapiens, UniProt P31749); experiment: mobility shift assay
T35 construct: purchased Carna Biosciences

[37] = target: T36, COT_Cascade (Homo sapiens, UniProt P41279); experiment: mobility shift assay
T36 construct: purchased Carna Biosciences
T36 sequence (P41279 whole entry): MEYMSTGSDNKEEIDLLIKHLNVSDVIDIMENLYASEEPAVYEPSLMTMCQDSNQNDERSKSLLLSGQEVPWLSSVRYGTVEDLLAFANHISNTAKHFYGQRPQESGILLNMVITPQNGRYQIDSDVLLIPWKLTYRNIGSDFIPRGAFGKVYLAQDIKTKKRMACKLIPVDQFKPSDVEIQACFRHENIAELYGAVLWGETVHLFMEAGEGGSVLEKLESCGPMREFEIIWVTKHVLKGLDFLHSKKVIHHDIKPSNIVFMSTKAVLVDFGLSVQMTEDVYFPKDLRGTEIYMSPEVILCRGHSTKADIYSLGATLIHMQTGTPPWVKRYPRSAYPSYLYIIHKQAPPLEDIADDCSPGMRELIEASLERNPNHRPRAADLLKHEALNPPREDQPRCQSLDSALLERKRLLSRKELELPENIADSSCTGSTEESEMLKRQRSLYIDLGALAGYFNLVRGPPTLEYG

[38] = target: T37, TIE2 (Homo sapiens, UniProt Q02763); experiment: mobility shift assay
T37 construct: purchased Carna Biosciences

[39] = target: T38, TRKB (Homo sapiens, UniProt Q16620); experiment: mobility shift assay
T38 construct: purchased Carna Biosciences

[40] = target: T39, AurA/TPX2 (Homo sapiens, UniProt O14965); experiment: mobility shift assay
T39 construct: purchased Carna Biosciences

[41] = target: T40, FGFR1 (Homo sapiens, UniProt P11362); experiment: mobility shift assay
T40 construct: purchased Carna Biosciences

T1 sequence (P07332 whole entry): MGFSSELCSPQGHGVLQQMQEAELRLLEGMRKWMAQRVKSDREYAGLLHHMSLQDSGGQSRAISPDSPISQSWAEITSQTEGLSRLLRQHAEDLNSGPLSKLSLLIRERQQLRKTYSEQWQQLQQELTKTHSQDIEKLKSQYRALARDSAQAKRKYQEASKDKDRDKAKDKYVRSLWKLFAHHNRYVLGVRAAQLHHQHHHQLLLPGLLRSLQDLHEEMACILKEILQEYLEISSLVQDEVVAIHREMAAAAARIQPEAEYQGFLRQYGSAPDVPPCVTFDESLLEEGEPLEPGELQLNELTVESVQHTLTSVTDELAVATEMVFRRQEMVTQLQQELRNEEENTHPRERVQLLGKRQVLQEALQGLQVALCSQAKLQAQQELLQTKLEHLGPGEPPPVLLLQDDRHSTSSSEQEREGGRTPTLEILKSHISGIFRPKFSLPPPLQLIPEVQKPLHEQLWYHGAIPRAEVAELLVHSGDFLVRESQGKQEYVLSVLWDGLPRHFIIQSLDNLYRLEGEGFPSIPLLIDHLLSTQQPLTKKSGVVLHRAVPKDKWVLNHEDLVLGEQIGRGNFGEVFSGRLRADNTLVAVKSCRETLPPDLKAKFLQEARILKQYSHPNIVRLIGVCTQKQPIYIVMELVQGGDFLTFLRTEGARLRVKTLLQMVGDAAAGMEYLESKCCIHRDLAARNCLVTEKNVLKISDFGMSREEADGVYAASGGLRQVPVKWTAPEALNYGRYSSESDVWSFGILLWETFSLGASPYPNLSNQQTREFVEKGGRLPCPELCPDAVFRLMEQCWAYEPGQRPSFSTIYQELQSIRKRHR

In the case of C[C@@H]1CC[C@H]2C(C)(C)CCC[C@]2(C)c2c1oc1c(C=O)c(O)c(O)cc21 [LG-1, liphagal], the inhibition at 10 µM [1] is reported as 23.4%, the inhibition at 10 µM [2] is reported as -2.8% and the inhibition at 10 µM [3] is reported as 11%. It also gave an inhibition at 10 µM [4] of -0.3%, an inhibition at 10 µM [5] of 19.9% and an inhibition at 10 µM [6] of 42.8%. The “% Inhibition” value [7] was −0.2%, the inhibition at 10 µM [8] was 24.5% and the inhibition at 10 µM [9] was 1.6%. For the same molecule, the inhibition at 10 µM [10] was 9.3%, the inhibition at 10 µM [11] was 13.9% and the inhibition at 10 µM [12] was 6.2%. For the same molecule, the inhibition at 10 µM [13] was 5.5%, the inhibition at 10 µM [14] was 1.7% and the inhibition at 10 µM [15] was 33.7%. It also gave an inhibition at 10 µM [16] of 13.2%, an inhibition at 10 µM [17] of 1.2% and an inhibition at 10 µM [18] of 4.2%. For the same molecule, the inhibition at 10 µM [19] was 5%, the inhibition at 10 µM [20] was 2.1% and the inhibition at 10 µM [21] was -8.4%. The inhibition at 10 µM [22] was 17.8%, the inhibition at 10 µM [23] was -1.2% and the inhibition at 10 µM [24] was 25.7%. It also gave an inhibition at 10 µM [25] of 0.5%, an inhibition at 10 µM [26] of 7.6% and an inhibition at 10 µM [27] of 0.5%. It also gave an inhibition at 10 µM [28] of 19.4%, an inhibition at 10 µM [29] of -6.6% and an inhibition at 10 µM [30] of 10.6%. For the same molecule, the inhibition at 10 µM [31] was 10.3%, the inhibition at 10 µM [32] was 2.1% and the inhibition at 10 µM [33] was 1.1%. For the same molecule, the inhibition at 10 µM [34] was 0.4%, the inhibition at 10 µM [35] was 19.5% and the inhibition at 10 µM [36] was 3.1%. For the same molecule, the inhibition at 10 µM [37] was 14.7%, the inhibition at 10 µM [38] was 11.7% and the inhibition at 10 µM [39] was 15.8%. The inhibition at 10 µM [40] was 12.2% and the inhibition at 10 µM [41] was -2.3%.
